From paper PMC5826766 (Molecular pharmaceutics, 2018)

What follows are molecules tested against hPHT1 (human peptide/histidine transporter 1, SLC15A4) (Homo sapiens, UniProt Q8N697, L14A/L15A/L318A/V319A) (assay: inhibition of MDP uptake in hPHT1mut cells at […], mock-subtracted). Conditions: read-out: % inhibition at 2 mM.
Assay type: cell-based

Chain of hPHT1 (human peptide/histidine transporter 1, SLC15A4) (Q8N697 whole entry L14A/L15A/L318A/V319A): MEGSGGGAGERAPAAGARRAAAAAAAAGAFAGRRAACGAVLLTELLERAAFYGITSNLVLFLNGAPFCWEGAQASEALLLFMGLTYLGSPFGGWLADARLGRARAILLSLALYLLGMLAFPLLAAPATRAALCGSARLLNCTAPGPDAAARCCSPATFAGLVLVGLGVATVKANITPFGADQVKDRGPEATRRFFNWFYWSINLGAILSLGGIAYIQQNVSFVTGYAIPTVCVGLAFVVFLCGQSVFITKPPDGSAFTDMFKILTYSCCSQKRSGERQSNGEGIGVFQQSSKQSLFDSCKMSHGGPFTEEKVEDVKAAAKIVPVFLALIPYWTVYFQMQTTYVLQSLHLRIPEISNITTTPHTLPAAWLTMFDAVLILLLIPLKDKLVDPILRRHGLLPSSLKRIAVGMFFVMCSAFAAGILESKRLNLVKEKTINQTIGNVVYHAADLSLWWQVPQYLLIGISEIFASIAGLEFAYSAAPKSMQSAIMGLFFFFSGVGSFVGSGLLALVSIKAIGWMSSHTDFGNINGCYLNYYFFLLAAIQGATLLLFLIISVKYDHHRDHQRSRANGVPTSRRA

Row | Compound | inhibition at 2000 µM
1 | NCCCC[C@H](N[C@@H](CCc1ccccc1)C(=O)O)C(=O)N1CCC[C@H]1C(=O)O [lisinopril] | 70 to 85%
2 | C[C@H](CS)C(=O)N1CCC[C@H]1C(=O)O [captopril] | 70 to 85%
3 | CC1=C(C(=O)O)N2C(=O)[C@@H](NC(=O)[C@H](N)c3ccc(O)cc3)[C@H]2SC1 [cefadroxil] | 70 to 85%
4 | CC1=C(C(=O)O)N2C(=O)[C@@H](NC(=O)[C@H](N)C3=CCC=CC3)[C@H]2SC1 [cephradine] | 70 to 85%
